Data taken from US20030224978A1, “Compounds and methods for modulating apoptosis” (McGill University, priority 1996, published 2003).
Entries after “also recorded” stand apart in the source; their conditions may differ. Like-named read-outs stand apart in the source and are kept apart here. Positions of bridges follow the written chain, without caps; N, C: chain ends. Residues, ends and D or L forms follow the SMILES beside them.

Legend:
in vitro [1] = assay type: cell-based; conditions: human
Protocol: (§1) N-Ac-CHAVC-NH2 (SEQ ID NO:10) and the control peptide N-Ac-CHGVC-NH2 (SEQ ID NO:20) were evaluated for possible cytotoxic effects on human microvascular endothelial (HMVEC; Clonetics), human umbilical vein endothelial (HUVEC; ATCC #CRL-1730), IAFp2 (human fibroblast cell line; Institute Armand-Frapier, Montreal, Quebec), WI-38 (human fibroblast cell line; ATCC #CCL-75), MDA-MB231 (human breast cancer cell line; ATCC #HTB-26), and PC-3 (human prostate cancer cell line; ATCC #CRL-1435) cells utilizing the MTT assay (Plumb et al., Cancer Res. 49:4435-4440, 1989). Neither of the peptides was cytotoxic at concentrations up to and including 100 μM. Similarly, neither of the peptides was capable of inhibiting the proliferation of the above cell lines at concentrations up to 100 μM, as judged by ^3H-thymidine incorporation assays.

in vitro [2] = assay type: cell-based; conditions: human; remark: listed apart in the source
Protocol: as §1

in vitro [3] = assay type: cell-based; conditions: human; remark: listed apart in the source
Protocol: as §1

PC-3 [4] = assay type: cell-based; conditions: human
Protocol: as §1

MDA-MB231 = assay type: cell-based; conditions: human
Protocol: as §1

WI-38 = assay type: cell-based, human; conditions: 3 h
Protocol: as §1

PC-3 [5] = assay type: cell-based, human; conditions: 3 h
Protocol: as §1

IAFp2 = assay type: cell-based, human; conditions: 3 h
Protocol: as §1

HMVEC = assay type: cell-based, human; conditions: 3 h
Protocol: as §1

in vitro [6] = assay type: cell-based; conditions: human; remark: listed apart in the source
Protocol: as §1

SKOV3 cells = experiment: Disruption of human ovarian cancer cell (SKOV3) adhesion; assay type: cell-based; conditions: 0.01-1 mg/mL, up to 48 hours
From the text: Within one representative cell adhesion assay, the addition of a modulating agent to cells that express a cadherin results in disruption of cell adhesion. A “cadherin-expressing cell,” as used herein, may be any type of cell that expresses at least one cadherin on the cell surface at a detectable level, using standard techniques such as immunocytochemical protocols (Blaschuk and Farookhi, Dev. Biol. 136:564-567, 1989). Cadherin-expressing cells include endothelial (e.g., bovine pulmonary artery endothelial cells), epithelial and/or cancer cells (e.g., the human ovarian cancer cell line SKOV3 (ATCC #HTB-77)). For example, such cells may be plated under standard conditions that permit cell adhesion in the presence and absence of modulating agent (e.g., 500 μg/mL). Disruption of cell adhesion may be determined visually within 24 hours, by observing retraction of the cells from one another.
The human ovarian cancer cell line SKOV3 (ATCC #HTB-77) expresses N-cadherin. SKOV3 cells were cultured in a modified MEM-based media containing 10% FCS. Cells were grown in T-250 culture flasks and maintained by periodic subculturing. Cyclic peptides were tested on cells grown in individual wells of 96-well culture dishes (surface area of each well was 0.32 cm^2). Cells were harvested from flasks and seeded at a density of 50,000 cells per well in 0.1 mL media containing the cyclic peptides at concentrations of 1, 0.1, or 0.01 mg/mL, or in the absence of cyclic peptide. Media control wells were also established. Cultures were evaluated periodically by microscopic examination under both bright field and phase contrast conditions. Cultures were maintained for 48 hours.

chick N-cadherin = target: T1, chick N-cadherin (Gallus gallus, UniProt P10288); experiment: N-cadherin dependent neurite outgrowth of rat cerebellar neurons on N-cadherin expressing 3T3 cells (Example 14); assay type: cell-based
T1 construct: expressed in transfected cells; host or cells: 3T3 fibroblasts
T1 sequence (P10288 165-912): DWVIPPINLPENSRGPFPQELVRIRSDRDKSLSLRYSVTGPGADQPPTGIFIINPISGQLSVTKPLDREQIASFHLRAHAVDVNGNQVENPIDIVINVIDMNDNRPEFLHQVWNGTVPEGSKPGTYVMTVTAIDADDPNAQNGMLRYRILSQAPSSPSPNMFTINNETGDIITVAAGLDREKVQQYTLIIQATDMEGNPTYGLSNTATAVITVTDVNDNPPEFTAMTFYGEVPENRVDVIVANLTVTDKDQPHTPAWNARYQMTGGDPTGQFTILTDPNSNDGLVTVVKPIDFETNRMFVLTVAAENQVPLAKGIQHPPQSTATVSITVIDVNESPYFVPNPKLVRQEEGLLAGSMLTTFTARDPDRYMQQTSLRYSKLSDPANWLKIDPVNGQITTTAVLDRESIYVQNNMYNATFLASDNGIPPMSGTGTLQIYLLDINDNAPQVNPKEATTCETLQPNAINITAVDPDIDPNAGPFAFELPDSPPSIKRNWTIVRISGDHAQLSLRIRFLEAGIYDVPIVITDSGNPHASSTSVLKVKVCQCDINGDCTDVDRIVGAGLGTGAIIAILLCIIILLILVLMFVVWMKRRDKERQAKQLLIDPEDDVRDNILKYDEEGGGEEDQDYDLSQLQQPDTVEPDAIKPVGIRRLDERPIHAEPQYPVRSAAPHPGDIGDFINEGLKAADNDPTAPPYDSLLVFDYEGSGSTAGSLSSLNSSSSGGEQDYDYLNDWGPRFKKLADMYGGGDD
Protocol: (§2) Cell culture and neurite outgrowth assays. Co-cultures of cerebellar neurons on monolayers of control 3T3 cells and monolayers of transfected 3T3 cells that express physiological levels of chick N-cadherin or human L1 were established as previously described (Williams et al., Neuron 13:583-594, 1994). In brief, 80,000 3T3 cells (control and transfected) were plated into individual chambers of an eight-chamber tissue culture slide coated with polylysine and fibronectin and cultured in DMEM/10% FCS. After 24 hours, when confluent monolayers had formed, the medium was removed and 3000 cerebellar neurons isolated from post-natal day 2-3 rats were plated into each well in SATO media (Doherty et al., Nature 343:464-466, 1990) supplemented with 2% FCS. All of the test peptides were added immediately before the neurons as a 2×stock prepared in SATO/2% FCS. The co-cultures were maintained for 16-18 hours, at which time they were fixed and immunostained for GAP-43 which is present only in the neurons and delineates the neuritic processes. The mean length of the longest neurite per cell was measured for 150-200 neurons sampled in replicate cultures as previously described (Williams et al., Neuron 13:583-594, 1994). […] Dose-response curves were evaluated and the EC50 values determined.
Effects of cyclic HAV peptides on N-cadherin function. The ability of N-Ac-CHAVC-NH2 (SEQ ID NO:10; compound 1) to inhibit neurite outgrowth was initially tested. This cyclic peptide has the cadherin CAR sequence (HAV) and no flanking amino acid residues. Neurons were cultured on confluent monolayers of control (untransfected) and N-cadherin expressing 3T3 cells for 16-18 hours. The cells were then fixed and the length of the longest neurite on 150-200 neurons was determined by standard assay, as described above. FIG. 24 gives the mean neurite length in a representative experiment where cerebellar neurons have been cultured over control and N-cadherin expressing cells. In the absence of peptide, the mean length of the longest neurite per cell was approximately double on the N-cadherin expressing cells, as compared to 3T3 cells. This response requires N-cadherin function in both the neuron and transfected fibroblast.

L1 = L1 (Homo sapiens, UniProt P32004); experiment: L1 response: neurite outgrowth of rat cerebellar neurons on L1 expressing 3T3 cells (Example 14); assay type: cell-based; design: expressed in transfected cells; host or cells: 3T3 cells (stably transfected); conditions: 100 μg/mL, concentrations that substantially inhibited the N-cadherin response
L1, sequence (P32004 20-1257): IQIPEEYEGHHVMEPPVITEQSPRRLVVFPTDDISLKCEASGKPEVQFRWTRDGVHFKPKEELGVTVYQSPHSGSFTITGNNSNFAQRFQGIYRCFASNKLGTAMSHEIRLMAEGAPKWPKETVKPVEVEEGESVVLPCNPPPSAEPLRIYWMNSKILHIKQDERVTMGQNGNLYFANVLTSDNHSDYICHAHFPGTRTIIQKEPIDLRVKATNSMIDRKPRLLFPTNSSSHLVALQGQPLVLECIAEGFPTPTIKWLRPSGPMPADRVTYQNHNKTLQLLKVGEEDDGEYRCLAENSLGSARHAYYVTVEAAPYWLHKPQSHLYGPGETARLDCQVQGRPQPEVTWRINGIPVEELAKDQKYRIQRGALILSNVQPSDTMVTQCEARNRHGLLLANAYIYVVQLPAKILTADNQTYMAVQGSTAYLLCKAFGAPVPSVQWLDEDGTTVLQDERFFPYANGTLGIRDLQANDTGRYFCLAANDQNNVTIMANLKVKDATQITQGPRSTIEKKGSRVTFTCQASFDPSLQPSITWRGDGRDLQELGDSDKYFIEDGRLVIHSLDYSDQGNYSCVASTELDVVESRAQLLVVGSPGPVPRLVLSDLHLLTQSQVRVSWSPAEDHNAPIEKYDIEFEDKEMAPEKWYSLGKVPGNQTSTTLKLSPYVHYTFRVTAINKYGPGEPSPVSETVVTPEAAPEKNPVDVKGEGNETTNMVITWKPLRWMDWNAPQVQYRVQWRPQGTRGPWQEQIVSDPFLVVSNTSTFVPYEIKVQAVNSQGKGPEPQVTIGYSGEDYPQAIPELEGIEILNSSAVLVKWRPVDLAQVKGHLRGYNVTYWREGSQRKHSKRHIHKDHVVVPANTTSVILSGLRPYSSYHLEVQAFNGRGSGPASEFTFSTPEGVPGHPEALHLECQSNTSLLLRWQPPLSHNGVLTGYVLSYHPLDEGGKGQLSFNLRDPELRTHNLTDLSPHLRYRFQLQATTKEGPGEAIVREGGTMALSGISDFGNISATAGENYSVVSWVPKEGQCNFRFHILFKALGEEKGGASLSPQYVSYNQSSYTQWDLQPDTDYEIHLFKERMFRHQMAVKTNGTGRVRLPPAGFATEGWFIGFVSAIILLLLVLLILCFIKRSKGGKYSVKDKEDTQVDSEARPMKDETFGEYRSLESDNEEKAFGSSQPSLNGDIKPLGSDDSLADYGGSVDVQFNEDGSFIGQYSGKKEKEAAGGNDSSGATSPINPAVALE
Protocol: FIG. 26 is a bar graph illustrating the effects of the cyclic peptides N-Ac-CHAVDC-NH2 (SEQ ID NO:11), N-Ac-CHAVDIC-NH2 (SEQ ID NO:62) and N-Ac-[…]-NH2 (SEQ ID NO:63) on L1 function. Cerebellar neurons were cultured on monolayers of control 3T3 cells and L1 expressing 3T3 cells for 16-18 hours in control media (unshaded) or control media supplemented with peptides N-Ac-CHAVDC-NH2 (SEQ ID NO:11; diagonal rising right), N-Ac-CHAVDIC-NH2 (SEQ ID NO:62); diagonal cross hatch) or N-Ac-[…]-NH2 (SEQ ID NO:63; diagonal rising left) at a concentration of 100 μg/mL. The cultures were then fixed and neurite outgrowth determined by measuring the length of the longest neurite from a total of 150-200 neurons sampled in replicate cultures for each experimental condition. […] The results are pooled from three independent experiments, and the bars show the s.e.m.
as §2, with “The co-cultures were maintained for 16-18 hours, at which time they were fixed and immunostained for GAP-43 which is present only in the neurons and delineates the neuritic processes.” left out, “determined. […]” for “determined.”

With CC(=O)N[C@H]1CCCCNC(=O)C[C@@H](C(N)=O)NC(=O)[C@H](C(C)C)NC(=O)[C@H](C)NC(=O)[C@H](Cc2c[nH]cn2)NC1=O (Ac-KHAVD-NH2; lactam 1-5 (inferred)) the IC50 (in vitro [1]) was > 100 µM, the IC50 (in vitro [2]) was > 100 µM and the IC50 (in vitro [3]) was > 100 µM. The IC50 (PC-3 [4]) was > 100 µM, the IC50 (MDA-MB231) was > 100 µM and the IC50 (WI-38) was > 100 µM. The IC50 (PC-3 [5]) was > 100 µM, the IC50 (IAFp2) was > 100 µM and the IC50 (HMVEC) was > 100 µM. For the same compound, the IC50 (in vitro [6]) was > 100 µM and the “activity on SKOV3 cell adhesion” value (SKOV3 cells) was “inactive”.
With CC[C@H](C)[C@@H]1NC(=O)[C@H](CC(=O)O)NC(=O)[C@H](C(C)C)NC(=O)[C@H](C)NC(=O)[C@H](Cc2c[nH]cn2)NC(=O)[C@@H](NC(C)=O)CSSC[C@@H](C(N)=O)NC1=O [N-Ac-CHAVDIC-NH2] (Ac-CHAVDIC-NH2; disulfide 1-7) the inhibition at 125 µg/mL (chick N-cadherin; NIH3T3, 125 μg/mL, 16-18 hours) was 88.3 ± 7.5%, the “inhibitory activity on N-cadherin dependent neurite outgrowth, in words” value (chick N-cadherin; Tables 8 and 9, 250 or 125 μg/mL) was “further increased activity; also recorded: potent inhibitors” and the EC50 (chick N-cadherin; from dose-response curve) was 60 µM. For the same compound, the “effect on L1 response (neurite outgrowth over L1 expressing 3T3 cells)” value (L1) was “did not interfere with the ability of neurons to extend neurites over 3T3 cells expressing L1; also recorded: not inhibited”.
